For one series, the target named is T1, Monoglyceride lipase (Mus musculus, UniProt O35678).
T1 sequence (O35678 whole entry): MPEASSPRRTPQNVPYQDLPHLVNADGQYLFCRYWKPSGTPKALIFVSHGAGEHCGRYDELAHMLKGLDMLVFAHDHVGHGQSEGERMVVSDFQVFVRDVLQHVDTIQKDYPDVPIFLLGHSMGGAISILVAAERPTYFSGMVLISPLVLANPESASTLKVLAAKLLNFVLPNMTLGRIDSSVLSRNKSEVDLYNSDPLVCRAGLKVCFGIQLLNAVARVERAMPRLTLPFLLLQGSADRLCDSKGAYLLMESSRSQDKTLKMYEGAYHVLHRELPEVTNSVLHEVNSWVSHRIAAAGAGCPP
Briefly: Inhibition of mouse MAGL using 2-AG as substrate incubated for 30 mins.

A short description of series [1]: Protein binding in mouse plasma assessed as free plasma concentration incubated for 10 mins by ultracentrifugation. The series is classed as ADME, cell-free.
Series [2] in a line: Drug metabolism in C57BL/6 mouse brain assessed as intact parent compound at 46.50 to 49.39 MBq, iv and measured after 20 mins post injection by radio-UPLC analysis. Type of series: ADME, organism-based. As to conditions: dose 46.5-49.39 MBq, read-out: Stability; call rule not given here.
Series [3] in a line: Stability in mouse serum at 37 degC for 2 hrs by UPLC analysis. Type of series: ADME, cell-free. As to conditions: read-out: Stability.
Series [4] can be described thus: Drug metabolism in C57BL/6 mouse brain assessed as intact parent compound 46.50 to 49.39 MBq, iv and measured after 60 mins post injection by radio-UPLC analysis. The series is classed as ADME, organism-based. The settings on record: dose 46.5-49.39 MBq, read-out: Stability.
Series [5] can be described thus: Protein binding in human plasma assessed as free plasma concentration incubated for 10 mins by ultracentrifugation. Type of series: ADME, cell-free.
The nature of series [6]: Clearance in mouse liver microsomes by LC/MS analysis. The series is classed as ADME, Microsome. The settings on record: read-out: CLH. For orientation: Liver microsomes are a subcellular fraction often used to study metabolism.
Series [7] is described as follows: Distribution coefficient between 1-octanol and phosphate buffer, logD of the compound after 15 mins by shake flask assay. As to conditions: 1-octanol/phosphate buffer. Type of series: physicochemical.
A short description of series [8]: Clearance in human liver microsomes by LC/MS analysis. The series is classed as ADME, Microsome. As to conditions: read-out: CLH.
Series [9] is described as follows: Drug uptake in C57BL/6 mouse brain at 4.41 to 6.8 nmol/kg, iv and measured after 1 min post infection by PET imaging anlaysis. The series is classed as ADME, organism-based. As to conditions: in vivo, dose 4.41-6.8 nmol/kg.
Series [10] in a line: Stability in human serum at 37 degC for 2 hrs by UPLC analysis. The settings on record: read-out: Stability. The series is classed as ADME, cell-free.
A short description of series [11]: Drug metabolism in C57BL/6 mouse brain assessed as intact parent compound at 46.50 to 49.39 MBq, iv and measured after 40 mins post injection by radio-UPLC analysis. The series is classed as ADME, organism-based. The settings on record: dose 46.5-49.39 MBq, read-out: Stability.
Series [12] is described as follows: Inhibition of Cynomolgus monkey MAGL using 2-AG as substrate incubated for 30 mins. The arrangement: species or system Macaca fascicularis.
Series [13] in a line: Drug uptake in Wistar rat brain Thalamus at 5 nM incubated for 30 mins by autoradiography. The series is classed as ADME, tissue-based. As to conditions: 0.5 h, 0.005 µM.
Series [14] in a line: Drug uptake in Wistar rat brain Hippocampus at 2 nM incubated for 30 mins by autoradiography. Type of series: ADME, tissue-based. As to conditions: 0.5 h, 0.002 µM.
The nature of series [15]: Drug uptake in MAGL knockout mouse brain incubated for 30 mins by autoradiography relative to control. As to conditions: 0.5 h. The series is classed as ADME, tissue-based.
Series [16] in a line: Drug uptake in Wistar rat brain Thalamus at 2 nM incubated for 30 mins by autoradiography. Type of series: ADME, tissue-based. As to conditions: 0.5 h, 0.002 µM.
A short description of series [17]: Drug uptake in Wistar rat brain Cortex at 5 nM incubated for 30 mins by autoradiography. The series is classed as ADME, tissue-based. The settings on record: 0.5 h, 0.005 µM.
The nature of series [18]: Drug uptake in Wistar rat brain incubated for 30 mins in presence of PF-06809247 by autoradiography. The series is classed as ADME, tissue-based. As to conditions: 0.5 h.
Series [19] in a line: Drug uptake in Wistar rat brain Cerebellum at 2 nM incubated for 30 mins by autoradiography. The series is classed as ADME, tissue-based. The settings on record: 0.5 h, 0.002 µM.
A short description of series [20]: Drug uptake in […] mouse brain incubated for 30 mins by autoradiography. Type of series: ADME, tissue-based. As to conditions: 0.5 h.
Series [21] can be described thus: Drug uptake in Wistar rat brain Hippocampus at 5 nM incubated for 30 mins by autoradiography. The series is classed as ADME, tissue-based. As to conditions: 0.5 h, 0.005 µM.
Series [22] in a line: Drug uptake in Wistar rat brain striatum at 5 nM incubated for 30 mins by autoradiography. As to conditions: 0.5 h, 0.005 µM. Type of series: ADME, tissue-based.
A short description of series [23]: Drug uptake in Wistar rat brain incubated for 30 mins in presence of SAR127303 by autoradiography. The series is classed as ADME, tissue-based. The settings on record: 0.5 h.
Series [24] in a line: Drug uptake in Wistar rat brain striatum at 2 nM incubated for 30 mins by autoradiography. The series is classed as ADME, tissue-based. The settings on record: 0.5 h, 0.002 µM.
The nature of series [25]: Drug uptake in Wistar rat brain Cortex at 2 nM incubated for 30 mins by autoradiography. The series is classed as ADME, tissue-based. As to conditions: 0.5 h, 0.002 µM.
A short description of series [26]: Drug uptake in Wistar rat brain Cerebellum at 5 nM incubated for 30 mins by autoradiography. The series is classed as ADME, tissue-based. As to conditions: 0.5 h, 0.005 µM.
Series [27] in a line: Metabolic stability in C57BL/6 mouse brain assessed as remaining parent compound 46.50 to 49.39 MBq, iv and measured after 90 mins post injection by radio-UPLC analysis. The series is classed as ADME, organism-based. The settings on record: dose 46.5-49.39 MBq, read-out: Stability.
Series [28] is described as follows: Drug uptake in wild type mouse brain at 0.74 at 4.94 nmol/kg, iv and measured after 1 min post infection by PET imaging anlaysis. Type of series: ADME, organism-based. As to conditions: in vivo.

The term IC50 denotes the concentration that inhibits the measured activity by half. `O=C(c1ccco1)N1CCN(C2CC(=O)N(c3ccc(-c4ccc(F)cc4)cc3)C2)CC1` (stereo unspecified) returned an IC50 on Monoglyceride lipase of 13 nM.
As to `COc1ccccc1-c1ccc(N2CC(N3CCN(C(=O)c4ccco4)CC3)CC2=O)cc1` (stereo unspecified), the midpoint of inhibition at Monoglyceride lipase, the IC50, lay at 30 nM.
In turn, `O=C1CC(N2CCN(c3ncccn3)CC2)CN1c1cccc(N2CC[C@@H](F)C2)c1` (stereo partly specified) displayed an IC50 against Monoglyceride lipase of 10700 nM.
In general, fraction unbound refers to free concentration divided by total concentration. What is called logD is the decadic logarithm of the distribution of all forms, ionised or not, between an organic phase and buffer at a given pH. For the compound `O=C(c1ccco1)N1CCN([C@@H]2CC(=O)N(c3ccc(-c4ccc(F)cc4)cc3)C2)CC1`, the fraction unbound at 10 min in series [1] was determined as 0.24; in series [5], 0.12. For the same compound, in series [2], the remaining at 20 min amounted to 95%. In addition, the remaining at 2 h in series [3] and in [10] was more than 95% each time. For the same compound, the remaining at 1 h in series [4] worked out at 68%. The results for the microsomal CLint in series [6] and in series [8] were 124 µL/min/mg and 21 µL/min/mg, respectively. The logD at 0.25 h in series [7] came out at 2.37. This compound displayed an SUV in series [9] of 1.63. For the same compound, the IC50 at Monoglyceride lipase was 8 nM; in [12] it was 14 nM. The remaining at 40 min in series [11] turned out to be 70%.
As to `O=C(c1ccco1)N1CCN(C2CC(=O)N(c3ccc(-c4ccc(F)nc4)cc3)C2)CC1` (stereo unspecified), the IC50 against Monoglyceride lipase came to 127 nM.
Take `O=C1CC(N2CCN(c3ncccn3)CC2)CN1c1ccc(N2CC[C@H](F)C2)cc1` (stereo partly specified): 80 nM corresponded to half-maximal inhibition against Monoglyceride lipase (IC50).
`COc1ccccc1-c1cccc(N2CC(N3CCN(c4ncccn4)CC3)CC2=O)c1` (stereo unspecified): half-maximal inhibition at Monoglyceride lipase (IC50) required 85 nM.
Same read-out and setting: under `COc1ccccc1-c1ccc(N2CC(N3CCN(c4ncccn4)CC3)CC2=O)cc1` (stereo unspecified) stands 72 nM; under `O=C(c1ccco1)N1CCN(C2CC(=O)N(c3cccc(N4CC[C@@H](F)C4)c3)C2)CC1` (stereo partly specified), 2920 nM; under `O=C(c1ccco1)N1CCN([C@H]2CC(=O)N(c3ccc(-c4ccc(F)cc4)cc3)C2)CC1`, 138 nM.
With `O=C(c1ccco1)N1CCN(C2CC(=O)N(c3cccc(-c4cccc(F)c4)c3)C2)CC1` (stereo unspecified), half-maximal inhibition on Monoglyceride lipase (IC50) required 41 nM.
Turning to `COc1cccc(-c2cccc(N3CC(N4CCN(C(=O)c5ccco5)CC4)CC3=O)c2)c1` (stereo unspecified), the Drug uptake entry in series [13] was “Active”; in [14], “Active”; in series [15], 54%; in series [16] it was “Active”; in [17], “Active”; in series [18], 41%. For the same compound, the Drug uptake entry in [19] is on record as “Active”; in series [20], “Not Active”; in series [21], “Active”; in series [22], “Active”; in series [23] it was 41%; in series [24] it was “Active”. The Drug uptake result in series [25] and in series [26] was “Active” throughout. Besides, the logD at 0.25 h in series [7] was determined as 2.31. The compound further came in with an SUV in series [9] of 0.6. The IC50 against Monoglyceride lipase came to 15 nM.
In turn, `O=C1CC(N2CCN(c3ncccn3)CC2)CN1c1cccc(-c2ccc(F)nc2)c1` (stereo unspecified) registered an IC50 at Monoglyceride lipase of 2100 nM.
With `O=C(c1ccco1)N1CCN(C2CC(=O)N(c3ccc(-c4ccccc4F)cc3)C2)CC1` (stereo unspecified), inhibition against Monoglyceride lipase was half-maximal at 37 nM (IC50).
`COc1cccc(-c2ccc(N3CC(N4CCN(c5ncccn5)CC4)CC3=O)cc2)c1` (stereo unspecified) yielded an IC50 against Monoglyceride lipase of 20 nM.
Consider `Cc1ccnc(F)c1-c1cccc(N2C[C@H](N3CCN(C(=O)c4nccs4)CC3)CC2=O)c1`, for which, in series [27], the remaining at 1.5 h was determined as 73%. Further, inhibition on Monoglyceride lipase was half-maximal at 13 nM (IC50).
`O=C1CC(N2CCN(c3ncccn3)CC2)CN1c1cccc(-c2cccnc2F)c1` (stereo unspecified) registered an IC50 on Monoglyceride lipase of 305 nM.
For `O=C1CC(N2CCN(c3ncccn3)CC2)CN1c1cccc(N2CC[C@H](F)C2)c1` (stereo partly specified), the IC50 against Monoglyceride lipase came out at 9300 nM.
On the same count and under the same terms, under `COc1cccc(-c2cccc(N3CC(N4CCN(c5ncccn5)CC4)CC3=O)c2)c1` (stereo unspecified) stands 39 nM.
On Monoglyceride lipase, `O=C(c1ccco1)N1CCN(C2CC(=O)N(c3ccc(N4CC[C@@H](F)C4)cc3)C2)CC1` (stereo partly specified) displayed an IC50 of 1080 nM.
Consider `COc1cccc(-c2ccc(N3CC(N4CCN(C(=O)c5ccco5)CC4)CC3=O)cc2)c1` (stereo unspecified), for which the Drug uptake result in series [13] is “Active”; in series [14], “Active”; in series [15] it was 41%; in series [16] it was “Active”; in [17], “Active”; in [18] it was 41%. The Drug uptake entry in series [19] was “Active”; in series [20], “Not Active”; in series [21] it was “Active”; in series [22] it was “Active”; in series [23], 41%; in [24] it was “Active”. Also, the Drug uptake entry in [25] and in [26] was “Active” in each case. The same compound registered a logD at 0.25 h in [7] of 2.24. At Monoglyceride lipase, this compound came in with an IC50 of 9 nM. The compound also registered an SUV in series [28] of 1.2.

These data come from ChEMBL document CHEMBL5042536, “Development of High Brain-Penetrant and Reversible Monoacylglycerol Lipase PET Tracers for Neuroimaging” (J Med Chem, 2022).
